{
  "source": "patent US8198317B2",
  "about": "“Methylenedioxy phenolic compounds and their use to treat disease” (The Ohio State University Research Foundation, priority 2008, dated 2012)",
  "key": {"[1]": {"test_system": "Watanabe Heritable Hyperlipidemic Rabbits (WHHL)", "assay": "Blood lipid profile in WHHL rabbits", "type": "in vivo, rabbit", "settings": "end of treatment", "procedure": "Hypercholesterolemia and oxidative stress occupy an important function in the progress of atherosclerosis. Lipids (cholesterol and LDL) in the blood were evaluated by analyzing the blood samples both at the baseline and the end point measurements. 1 ml of blood from an ear lobe vein was placed into K EDTA tubes at a start of high cholesterol diet and again at the time of sacrifice. All values were expressed as mean±SD. The bar graph of each group for total cholesterol and LDL cholesterol at baseline prior to the initiation of high fat chow, following high fat chow but before intervention and at the end of intervention with INV-75 and control are presented. (FIG. 14 A and FIG. 14B). […] The lack of effect may relate to the genetic model (WHHL) which has extremely high lipid values and a mutation in the LDL receptor. Since INV 75 is believed to function by increasing LDL clearance through an increase in LDL receptor expression, the lack of effect on LDL cholesterol and total cholesterol (major lipoprotein fraction in this model at baseline and in response to high fat chow feeding) is understandable."}, "[2]": {"test_system": "thoracic aorta of WHHL rabbits", "assay": "Organ chamber experiments on thoracic aortic rings of WHHL rabbits", "type": "in vivo, rabbit", "procedure": "Rabbits were euthanized by injection of lethal doses of pentobarbital. The ascending aortas was removed and 2 mm thoracic aortic rings were suspended in individual organ chambers filled with physiological salt solution buffer (sodium chloride, 130 mEq/L; potassium chloride, 4.7 mEq/L; calcium dichloride, 1.6 mEq/L; magnesium sulfate, 1.17 mEq/L; potassium diphosphate, 1.18 mEq/L; sodium bicarbonate, 14.9 mEq/L; EDTA, 0.026 mEq/L; and glucose, 99.1 mg/dL [5.5 mmol/L]; pH, 7.4), aerated continuously with 5% carbon dioxide in oxygen at 37° C. Vessels were allowed to equilibrate for at least 1 hour at a resting tension of 30 mN before being subjected to graded doses of agonists as described previously. The vasoconstrictor agonists included phenylephrine (PE), endothelin-1 (ET-1), or angiotensin II. Responses were expressed as a percentage of the peak response to 120 mEq/L of potassium chloride. The vessels subjected to PE were washed thoroughly and allowed to equilibrate for 1 hour before beginning experiments with acetylcholine, sodium nitroprusside (SNP) or insulin. […] Results were expressed as a percentage of pre-contraction by PE (0.1 μM). The rings exposed to acetylcholine were thoroughly washed and allowed to equilibrate for 1 hour. […] Results were expressed as a percentage of pre-contraction by PE (0.1 μM). INV-75 decreased aortic contraction by angiotensin II but had no effect on phenylephrine (FIG. 15 and FIG. 16)."}, "[3]": {"test_system": "SREBP-2", "assay": "SREBP2 nuclear binding by EMSA in HepG2 cells", "type": "cell-based, human", "procedure": "FIG. 5A is a graph showing in vitro time course of course of Sterol Regulatory and Binding Protein-2 (SREBP2) activity measurement with INV-75. HepG2 cells were stimulated with INV-75 (0.1 mM) for four hours and the binding activity of SREBP2 to nuclear proteins was measured by electrophoretic migration shift assay (EMSA). A total of three experiments were performed. *, p<0.01 by ANOVA compared to vehicle.\nFIG. 5B is a graph showing the dose dependent effects of INV-75 on SREBP2 activity. HepG2 cells were stimulated with multiple concentrations of INV-75 for 1 hour and binding activity of SREBP2 in nuclear proteins was measured by electrophoretic migration shift assay (EMSA). A total of three experiments were performed. *, p<0.01 by ANOVA compared to vehicle.\nA family of transcription factors designated SREBP (sterol regulatory element binding proteins) regulate synthesis of cholesterol and fatty acids. Of these, SREBP-2 mainly regulates cholesterol biosynthesis by alteration of cholesterol synthesis enzymes and LDL receptor expression (SREBP-1c mainly regulates fatty acid synthesis). […] The time course with this dose and dose dependence was analyzed. Next we assessed the expression of both precursor and mature form of SREBP-2 in the cytoplasm by western analysis. Both time course and dose dependence of mature form of SREBP-2 was analyzed."}, "[4]": {"test_system": "Individuals", "assay": "Treatment of inflammatory arthritis (Example 26)", "type": "in vivo, human", "settings": "oral, 6 months", "excerpt": "Individuals with rheumatoid arthritis, psoriatic arthritis and systemic lupus erythematosis suffer from recurrent bouts of inflammatory arthritis. They are usually on treatments such as non-steroidal agents such as cyclooxygenase inhibitors, anti-TNFα treatments and other types of immunotherapy. In addition to these treatments they will also receive an acceptable dose of a composition comprising a compound of the present invention in an acceptable carrier orally chronically for durations in excess of 6 months. In one study, 3,4-methylenedioxy-6-nitrophenyl acetate (INV 75) is administered to these individuals. The patients undergo an assessment of joint pains and inflammatory markers such as C-reactive protein (CRP) and erythrocyte sedimentation rate."}, "[5]": {"test_system": "LDL receptor", "assay": "LDL receptor mRNA by RT-PCR in HepG2 cells", "type": "cell-based, human", "settings": "HepG2, time dependent and dose dependent", "procedure": "FIG. 5E is graph showing time course of low density lipoprotein receptor (LDLR) messenger RNA (mRNA) with INV-75 assessed by quantitative real time polymerase chain reaction (RT-PCR). A total of three experiments were performed. *, p<0.01 by ANOVA compared to vehicle.\nFIG. 5F is a graph showing dose dependency experiments of low density lipoprotein receptor (LDLR) messenger RNA (mRNA) measurement with INV-75. HepG2 cells were stimulated with multiple concentrations of INV-75 for 1 hour and LDL mRNA expression was measured by quantitative real time polymerase chain reaction (RT-PCR). A total of three experiments were performed. *, p<0.01 by ANOVA compared to vehicle. Dose of INV-75 is log molar concentration.\nNext we investigated the effect of INV-75 in regulating LDL receptor expression in the same cells using a similar protocol to assess dose and temporal dependence. FIGS. 5E and 5F depict the time course of LDL receptor expression and dose dependence in response to INV-75. […] INV-75 had no effects on SREBP-1 regulation (data not shown). Simultaneously multiple genes involved in cholesterol synthesis and regulation, apolipoprotein gene expression and expression of PCSK9 (Proprotein convertase subtilisin/kexin type 9) was tested. […]"}},
  "data": [
    {"smiles": "CC(=O)Oc1cc2c(cc1[N+](=O)[O-])OCO2", "note": "[INV-75, 3,4-methylenedioxy-6-nitrophenyl acetate]", "values": [
      {"measurement": "LDL cholesterol", "setting": "[1]", "value": "no differences"},
      {"measurement": "total cholesterol", "setting": "[1]", "value": "no differences"},
      {"measurement": "aortic contraction by angiotensin II", "setting": "[2]; in words", "value": "decreased"},
      {"measurement": "effect on insulin relaxation", "setting": "[2]; in words", "value": "marginal (non-significant effect"},
      {"measurement": "effect on phenylephrine response", "setting": "[2]; in words", "value": "no effect"},
      {"measurement": "effect on response to endothelin-1", "setting": "[2]; in words", "value": "no effects"},
      {"measurement": "effect on SNP response", "setting": "[2]; results not shown", "value": "no effects"},
      {"measurement": "time to increased nuclear binding of SREBP-2", "setting": "[3]; HepG2, 0.1 mM", "value": "< 1", "unit": "h"},
      {"measurement": "dose effective in inducing translocation of SREBP-2 to the nucleus", "setting": "[3]; HepG2, 1 hour", "value": "≥ 100", "unit": "nM"},
      {"measurement": "joint pains and markers of inflammation", "setting": "[4]", "value": "marked improvement"},
      {"measurement": "LDL receptor expression", "setting": "[5]", "value": "increases"}
    ]}
  ]
}
